Laboratory results from publication PMC8994274, “A proteolysis-targeting chimera molecule selectively degrades ENL and inhibits malignant gene expression and tumor growth” (Journal of Hematology & Oncology, 2022).

Legend:
[1] = system: AF9, AFF4, cyclin-T1 and H3K79me2; assay: ChIP-qPCR, AF9, AFF4, cyclin-T1 and H3K79me2 at gene promoters of Myc and HoxA9; assay type: cell-based; conditions: MV4;11 cells, 500 nM, 4 days
Protocol: (§1) Chromatin immunoprecipitation (ChIP) followed by qPCR was used to further probe the activity of compound 1 in the gene promoters of Myc and HoxA9, two characteristic MLL1 target genes.
(§2) Upon treatment with a compound for 4 days, 10^7 MV4;11 cells were cross-linked with 1% formaldehyde at room temperature for 10 min, followed by the addition of 125 mM glycine. Cells were lysed with nuclear lysis buffer and sonicated to ~ 100–1000 bp fragments, which was incubated at 4 °C overnight with an antibody and IgG (C15410206, Diagenode). Protein A/G Magnetic Beads (10 µL, Novus Biologicals) were added and incubated for 2 h. The beads were washed 3 × with RIPA buffer and 2 × with TE buffer. DNA on the beads was eluted for 2 h at 68 °C in 100 μL of an elution buffer (20 mM Tris pH 7.5, 5 mM EDTA, 50 mM NaCl, 1% SDS, 50 μg/mL proteinase K) (2 ×), and purified using a ChIP DNA Clean & Concentrator kit (Novus Biologicals). qPCR was done using the method described above.

[2] = system: blood and solid tumor cells; assay: Antiproliferation assay, ranges given over several cell lines; assay type: cell-based; conditions: AML Kasumi-1, myeloma RPMI-8226 and U266; read-out: EC50 against Kasumi-1, RPMI-8226 and U266 cells (range over cell lines)
Protocol: (§3) Proliferation inhibition assays for suspension blood cancer cells were performed using an XTT assay kit (Biotium), following our previous methods [22]. EC50 values were determined using Prism 5 and from at least three independent experiments.

HoxA11 and HoxA13 = assay: qPCR expression of HoxA11 and HoxA13 in mENL-transfected HEK293T cells; assay type: cell-based; conditions: 0.04 μg of the plasmid, 24 h incubation
Protocol: Next, we investigated how mENL degradation affect expression of HoxA11 and HoxA13 in this cell model.
5 × 10^5 HEK293T cells were transfected with mENL containing pcDNA3.1(+)-N-DYK plasmid using jetPRIME (Polyplus Transfection) following the manufacturer's protocol. Upon transfection for 4 h, the media were carefully removed and the cells incubated with fresh media containing the specified concentrations of compound 1 for 24 h before further analysis (using Western blot or qPCR as described above).

Hela cells = assay: Antiproliferation assay, Hela; conditions: Homo sapiens, 168 h, read-out: Antiproliferative activity, EC50, Hela
Panc1 cells = assay: Antiproliferation assay, Panc1; conditions: Homo sapiens, PANC-1, 168 h, read-out: Antiproliferative activity, EC50, Panc1
U266 cells = assay: Antiproliferation assay (XTT), U266; conditions: Homo sapiens, U-266, 168 h, read-out: Antiproliferative activity, EC50, U266
Protocol: as §3

MV4;11 cells = assay: Antiproliferation assay (XTT), MV4;11; conditions: Homo sapiens, MV4-11, 168 h, read-out: EC50 against proliferation of MV4;11 cells
Protocol: as §3

Kasumi-1 cells = assay: Antiproliferation assay (XTT), Kasumi-1; conditions: Homo sapiens, Kasumi 1, 168 h, read-out: Antiproliferative activity, EC50, Kasumi-1
Protocol: as §3

ENL [3] = target: T1, ENL (Homo sapiens, UniProt Q03111); assay: ENL degradation in MV4;11 cells (Western blot); assay type: cell-based; set-up: endogenous in cells; host or cells: MV4;11; conditions: 24 h
T1 sequence (Q03111 1-559): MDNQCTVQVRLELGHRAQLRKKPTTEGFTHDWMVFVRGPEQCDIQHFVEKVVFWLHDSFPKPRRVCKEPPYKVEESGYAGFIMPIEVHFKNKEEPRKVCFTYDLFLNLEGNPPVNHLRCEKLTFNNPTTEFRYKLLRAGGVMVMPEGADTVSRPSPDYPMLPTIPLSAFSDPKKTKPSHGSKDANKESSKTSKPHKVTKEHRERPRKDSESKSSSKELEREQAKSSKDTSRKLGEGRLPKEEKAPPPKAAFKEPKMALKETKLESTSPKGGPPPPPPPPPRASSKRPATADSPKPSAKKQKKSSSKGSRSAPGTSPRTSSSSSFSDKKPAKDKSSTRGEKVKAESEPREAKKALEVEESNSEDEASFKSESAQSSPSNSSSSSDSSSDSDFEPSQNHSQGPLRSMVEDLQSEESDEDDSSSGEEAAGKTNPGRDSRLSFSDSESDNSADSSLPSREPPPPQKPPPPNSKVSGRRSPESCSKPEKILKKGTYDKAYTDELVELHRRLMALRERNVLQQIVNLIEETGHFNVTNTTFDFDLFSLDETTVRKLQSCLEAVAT
Protocol: We next tested whether these compounds degrade ENL and AF9 in MV4;11 leukemia cells with the MLL1-AF4 oncogene. Upon compound treatment for 24 h, the cells were washed, lysed, and the lysates subjected to SDS-PAGE (sodium dodecyl sulfate–polyacrylamide gel electrophoresis) followed by detection with Western blot.
3 × 10^6 cells/well were treated with increasing concentrations of a compound for 1 day, and whole proteins were extracted. Equal amounts of proteins were separated on SDS-PAGE and transferred to PVDF membranes. The blots were probed with primary antibodies, followed by anti-rabbit IgG (Thermo Scientific) secondary antibodies. The primary antibodies against ENL (Cell signaling #14893), AF9 (Novusbio #NB100-1565), DOT1L (Cell signaling #77087), AFF4 (Abcam #ab103586), Cyclin T1 (Cell signaling #81464), H3K79me2 (Cell signaling #5427), H3K79me1 (Cell signaling #9398), Histone H3 (Cell signaling #4499), FLAG (Sigma-Aldrich #F1804), β-Actin (Cell signaling #4970) were used in this study.

ENL [4] = target: T1, ENL; assay: ENL in nucleus and cytoplasm of MV4;11 cells (Western blot); assay type: cell-based; set-up: endogenous in cells; host or cells: MV4;11; conditions: 4 days
Protocol: Upon treatment of MV4;11 cells with these compounds for 4 days, cytoplasmic and nuclear proteins were separated and subjected to SDS-PAGE/Western blot.
3 × 10^6 cells/well were treated with increasing concentrations of a compound for 1 day, and whole proteins were extracted. Equal amounts of proteins were separated on SDS-PAGE and transferred to PVDF membranes. The blots were probed with primary antibodies, followed by anti-rabbit IgG (Thermo Scientific) secondary antibodies.

ENL [5] = target: T1, ENL; assay: ChIP-qPCR, ENL at gene promoters of Myc and HoxA9; assay type: cell-based; set-up: endogenous in cells; host or cells: MV4;11; conditions: MV4;11 cells, 500 nM, 4 days
Protocol: as §1, §2

C[C@H]1CCCN1Cc1nc2cc(NC(=O)c3ccc4c(cnn4CCCCCCCCNc4cccc5c4C(=O)N(C4CCC(=O)NC4=O)C5=O)c3)ccc2[nH]1 (some centres unmarked) [Compound 1]
AF9, AFF4, cyclin-T1 and H3K79me2 at gene promoters of Myc and HoxA9 [1]: did not significantly lower down | EC50 [2]: 1100 to 4100 nM | Overexpression of HoxA11 and HoxA13 (HoxA11 and HoxA13): significantly inhibited overexpression | EC50 (Hela cells): > 50000 nM | EC50 (Panc1 cells): > 50000 nM | EC50 (U266 cells): 4100 ± 1800 nM | EC50 (MV4;11 cells): 570 nM | EC50 (Kasumi-1 cells): 1100 ± 30 nM | Dmax (ENL [3]; MV4-11, MV4;11 cells, read-out: Dmax (maximal degradation) of ENL): ~95% | Concentration of maximal ENL-degrading activity (hook effect above) (ENL [3]; MV4;11 cells): ~ 500 nM | DC50 (ENL [3]; MV4;11 cells, read-out: DC50 (concentration at which a protein is reduced by 50%) of ENL): 37 nM | ENL level in the cytoplasmic extract (ENL [4]): significantly reduced | ENL level in the nucleus (ENL [4]; compound 1 at 500 nM): almost depleted | ENL levels at gene promoters of Myc and HoxA9 (ENL [5]): significantly reduced
